The assay addresses T1, human mPGES-1 (Homo sapiens, UniProt O14684).
T1 sequence (O14684 1-152): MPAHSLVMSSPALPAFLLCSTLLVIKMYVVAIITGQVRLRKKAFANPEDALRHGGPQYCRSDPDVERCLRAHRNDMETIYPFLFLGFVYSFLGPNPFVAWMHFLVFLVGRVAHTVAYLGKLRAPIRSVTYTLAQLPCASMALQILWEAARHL
The assay is described as follows: Microsomal prostaglandin E synthase biochemical assay. As to conditions: microsome preparation containing human mPGES-1; PGH2 10.8 μM, GSH 2.5 mM, pH 6.8; PGE2 quantified by HTRF; average of at least n=2. The protocol: Compounds were tested as inhibitors of microsomal prostaglandin E synthase activity in microsomal prostaglandin E synthase assays and whole cell assays. These assays measure prostaglandin E2 (PGE2) synthesis which is taken as a measure of prostaglandin E synthase activity. Microsomal prostaglandin E synthase biochemical assays used microsomal prostaglandin E synthase-1 in microsomal preparations. The source of the microsomes can be for example interleukin-1β-stimulated human A549 cells (which express human mPGES-1) or Sf9 cells transfected with plasmids encoding human mPGES-1 cDNA.
A solution of test compound was added to a diluted microsome preparation containing human mPGES-1 and pre-incubated for 15 minutes in potassium phosphate buffer pH 6.8 with cofactor glutathione (GSH). Corresponding solutions without test compound were used as positive controls, and corresponding solutions without test compound and without microsomes were used as negative controls. The enzymatic reaction was then started by addition of the substrate PGH2 in an organic solution (dry acetonitrile).
The reaction was stopped after one minute by adding an acidic solution (pH 1.9) of ferric chloride and citrate (final concentrations 7 mM and 47 mM respectively), by which the PGH2 was sequestered (the PGH2 is reduced to mainly 12-hydroxy heptadecatrineoic acid (12-HHT) which is not detected by the subsequent PGE2 detection step). The resulting solution was then pH neutralized by addition of potassium phosphate buffer, prior to diluting an aliquot of the resulting solution in a weak potassium phosphate buffer (50 mM, pH 6.8) containing 0.2% BSA (w/v). […] The PGE2 formed was quantified by use of a commercial HTRF based kit (catalogue #62PG2PEC or #62P2APEC from Cisbio International). 100% activity was defined as the PGE2 production in positive controls subtracted by the PGE2 production in the negative controls. IC50 values were then determined using standard procedures.
(Time-resolved FRET reads energy transfer from a long-lived donor to a nearby acceptor.)

We go through 17 compounds from US20090131468A1, “Bis-(Sulfonylamino) Derivatives in Therapy 065” (AstraZeneca AB, priority 2007, published 2009).

With `NS(=O)(=O)c1ccccc1S(=O)(=O)NC(=O)c1ccc(-c2cc3ccccc3o2)cn1` [Example 1, 5-Benzofuran-2-yl-N-(2-sulfamoylphenyl)sulfonyl-pyridine-2-carboxamide], half-maximal inhibition (IC50) was put at 240 nM. This counts as sub-micromolar.

`NS(=O)(=O)c1ccccc1S(=O)(=O)NC(=O)c1ccc(-c2cccc(Cl)c2Cl)cn1` [Example 2, 5-(2,3-Dichlorophenyl)-N-(2-sulfamoylphenyl)sulfonyl-pyridine-2-carboxamide] displayed an IC50 of 2000 nM. Compared with the last compound, the IC50 is about 8.3-fold higher.

`NS(=O)(=O)c1ccccc1S(=O)(=O)NC(=O)c1ccc(-c2cc3ccccc3o2)cc1` [Example 3, 4-Benzofuran-2-yl-N-(2-sulfamoylphenyl)sulfonyl-benzamide] returned an IC50 of 5.8 nM.

`NS(=O)(=O)c1ccccc1S(=O)(=O)NC(=O)c1ccc(-c2cc3ccccc3s2)cc1` [Example 4, 4-Benzothiophen-2-yl-N-(2-sulfamoylphenyl)sulfonyl-benzamide] had an IC50 of 40 nM. Compared with the last compound, the IC50 is about 6.9-fold higher.

`NS(=O)(=O)c1ccccc1S(=O)(=O)NC(=O)c1ccc(-c2nc3ccccc3s2)cc1` [Example 5, 4-Benzothiazol-2-yl-N-(2-sulfamoylphenyl)sulfonyl-benzamide] had an IC50 of 23 nM. Against the preceding compound, the IC50 is about 1.7-fold lower.

The compound `NS(=O)(=O)c1ccccc1S(=O)(=O)NC(=O)c1ccc(-c2nc3cnccc3o2)cc1` [Example 6, 4-(7-Oxa-3,9-diazabicyclo [4.3.0]nona-2,4,8,10-tetraen-8-yl)-N-(2-sulfamoylphenyl)-sulfonyl-benzamide] registered an IC50 of 1100 nM.

Turning to `NS(=O)(=O)c1ccccc1S(=O)(=O)NC(=O)c1ccc(-c2nc3cccnc3o2)cc1` [Example 7, 4-(7Oxa-5,9-diazabicyclo [4.3.0]nona-2,4,8,10-tetraen-8-yl)-N-(2-sulfamoylphenyl)-sulfonyl-benzamide], the IC50 came out at 1000 nM.

`NS(=O)(=O)c1ccccc1S(=O)(=O)NC(=O)c1ccc(-c2nc3ccccc3o2)cc1` [Example 8, 4-Benzooxazol-2-yl-N-(2-sulfamoylphenyl)sulfonyl-benzamide] showed an IC50 of 86 nM.

In the case of `NS(=O)(=O)c1ccccc1S(=O)(=O)NC(=O)c1ccc2cc(-c3ccccc3)oc2c1` [Example 9, 2-Phenyl-N-(2-sulfamoylphenyl)sulfonyl-benzofuran-6-carboxamide], half-maximal inhibition (IC50) required 78 nM.

`NS(=O)(=O)c1ccccc1S(=O)(=O)NC(=O)c1ccc(Br)cc1` [Example 10, 4-Bromo-N-(2-sulfamoylphenyl)sulfonyl-benzamide] returned an IC50 of 440 nM.

Regarding `NS(=O)(=O)c1ccccc1S(=O)(=O)NC(=O)c1ccc(Br)cc1Cl` [Example 11, 4-Bromo-2-chloro-N-(2-sulfamoylphenyl)sulfonyl-benzamide], the IC50 came to 5500 nM. This IC50 is about 12-fold higher than that of the compound before.

As for `Cc1cc(C(=O)NS(=O)(=O)c2ccccc2S(N)(=O)=O)ccc1Br` [Example 12, 4-Bromo-3-methyl-N-(2-sulfamoylphenyl)sulfonyl-benzamide], the IC50 was 170 nM. This IC50 is about 32-fold lower than that of the compound before.

As to `NS(=O)(=O)c1ccccc1S(=O)(=O)NC(=O)c1ccc(Br)c(F)c1` [Example 13, 4-Bromo-3-fluoro-N-(2-sulfamoylphenyl)sulfonyl-benzamide], half-maximal inhibition (IC50) required 290 nM.

For `NS(=O)(=O)c1ccccc1S(=O)(=O)NC(=O)c1ccc(Br)cc1F` [Example 14, 4-Bromo-2-fluoro-N-(2-sulfamoylphenyl)sulfonyl-benzamide], it took 1400 nM to reach half-maximal inhibition (IC50).

`Cc1cc(Br)ccc1C(=O)NS(=O)(=O)c1ccccc1S(N)(=O)=O` [Example 15, 4-Bromo-2-methyl-N-(2-sulfamoylphenyl)sulfonyl-benzamide] gave an IC50 of 2000 nM.

The compound `NS(=O)(=O)c1ccccc1S(=O)(=O)NC(=O)CC12CC3CC(CC(C3)C1)C2` [Example 16, 2-(1-Adamantyl)-N-(2-sulfamoylphenyl)sulfonyl-acetamide] yielded an IC50 of 5200 nM.

`NS(=O)(=O)c1ccccc1S(=O)(=O)NC(=O)C1CC2CCC1C2` (centres unmarked) [Example 17, N-(2-Sulfamoylphenyl)sulfonylnorbornane-2-carboxamide] registered an IC50 of 9800 nM. This IC50 lies about 1.9-fold higher than the previous one.

As usually defined, the IC50 is the concentration that gives 50% inhibition. Lower therefore signals inhibition by little substance.
